Source: patent US20230226227A1, “PROSTATE SPECIFIC MEMBRANE ANTIGEN (PSMA) LIGANDS AND USES THEREOF” (ADVANCED ACCELERATOR APPLICATIONS (ITALY) SRL, priority 2019, published 2023)
Where “and” joins values, the source holds several entries; their conditions need not be identical. Equal values may be shown once.

How the values were obtained:
[1] = Repeated dose (2 weeks) toxicity and toxicokinetic study in the rat
Method: The purpose of this study was to investigate the toxicity of ^175Lu-PSMA-R2 in rats after daily intravenous administration for 2 weeks and recovery from any treatment related effects during a 2-week recovery period (main groups).
The tested doses were 0.13, 0.39 and 1.29 mg/kg/day, that is about 31, 93 and 310 times the PSMA-R2 anticipated human dose.
Each main treatment group consisted of 10 male and 10 female rats. There were additional 5 male and 5 females included to be sacrificed after 2 weeks of recovery in groups 1 and 4. Two satellite groups (low and mid- dose) for toxicokinetics had 9 male and 9 female animals and one group (high dose) included 12 male and 12 female animals. One additional group (control) comprised 3 male and 3 female animals.
In this study, the toxicity and the toxicokinetic profile of ^175Lu-PSMA-R2 were investigated in Sprague Dawley rats after daily intravenous administration for 2 weeks at the dosages of 0.13, 0.39 and 1.29 mg/kg/day.

[2] = Plasma protein binding by ultrafiltration, minipig plasma; format: in vitro ADME
Method: Plasma protein binding of PSMA-R2 and ^175Lu-PSMA-R2 has been determined by ultrafiltration method, after incubation of the compounds in human, mouse, rat and minipig plasma at two different concentrations: 1 and 5 µg/mL.

[3] = Repeated dose (2 weeks) toxicity and toxicokinetic study in the minipig; format: in vivo, minipigs; settings: for Half-life: mean value per sex
Method: The tested doses are: 0.058, 0.175 and 0.583 mg/kg/day, that is about 14, 42 and 140 times the PSMA-R2 anticipated human dose.
Each group included 3 male and 3 female minipigs. Groups 1 and 4 included 2 additional animals per gender to be sacrificed after 2 weeks of recovery.
All animals were dosed intravenously once a day for 14 consecutive days.

[4] = Effect on respiration in the unrestrained conscious rat (whole-body plethysmography); format: in vivo; settings: single iv 0.2, 0.6, 2 mg/kg; over 4 hours post-injection
Method: The aim of this study was to assess the possible effects of 0.2, 0.6 and 2.0 mg/kg ^175LuPSMA-R2 on respiratory function of conscious rats via a whole-body plethysmography method after intravenous administration according to the study design detailed in Table 3.
Inspiratory time, expiratory time, peak inspiratory flow, peak expiratory flow, tidal volume, relaxation time, minute volume, respiratory rate and enhanced pause were continuously recorded from approximately 1 hour before dosing up to 4 hours after dosing. Respiratory […] parameters were reported pre-dose and at 5, 15 and 30 minutes and 1, 1.5, 2, 3 and 4 hours after dosing. Clinical signs were recorded on the day of dosing.

[5] = daily iv 0.058, 0.175, 0.583 mg/kg/day for 14 days

For `O=C(O)CCC(NC(=O)NC(CCCCN(Cc1ccc(Br)cc1)C(=O)CCCCCNC(=O)CN1CCN(CC(=O)O)CCN(CC(=O)O)CCN(CC(=O)O)CC1)C(=O)O)C(=O)O.[175Lu]` (stereo not shown) [^175Lu-PSMA-R2], the “Accumulation after daily administration” value ([1]; Day 1 to Day 14) was “No accumulation”, the Half-life ([1]; both sexes and all dose levels) was 24 to 48 min and the “NOAEL (No Observed Adverse Effect Level)” value ([1]; daily iv for 2 weeks) was 1.29 mg/kg/day. The “Toxic / treatment-related effects in treated groups compared to controls” value ([1]; daily iv for 2 weeks) was “No evidence of treatment-related effects”, the “Bodyweight and food consumption” value ([1]; rat, in vivo) was “unaffected by treatment” and the “Clearance, dose dependence” value ([1]; rat, in vivo) was “dose-independent”. For the same compound, the Clinical pathology examination ([1]; rat, in vivo) was “No findings of toxicological relevance”, the Daily clinical observation ([1]; rat, in vivo) was “No signs of toxicological significance” and the “Dose proportionality of exposure” value ([1]; rat, in vivo) was “approximately dose proportional”. The “NOAEL as multiple of the foreseen human dose” value ([1]; rat, in vivo) was 310 times, the “Necropsy, organ weights or histopathological examination” value ([1]; rat, in vivo) was “No evidence of treatment-related effects” and the Ophthalmoscopy examination ([1]; rat, in vivo) was “No anomalies related to treatment”. The “Toxic / treatment-related effects in treated groups compared to controls” value ([1]; rat, in vivo, iv) was “no toxic effects”, the “fu (%) fraction unbound” value ([2]; 1 µg/mL) was 41.1 ± 4.2% and the “fu (%) fraction unbound” value ([2]; 5 µg/mL) was 46.1 ± 12.5%. The Half-life ([3]; Day 1, female minipigs) was 37.8 min, the Half-life ([3]; Day 1, male minipigs) was 42.6 min and the “Accumulation after daily administration” value ([3]; Day 1 to Day 14) was “No relevant accumulation”. For the same compound, the “Clinical pathology, gross pathology, terminal body weight, absolute and relative organ weight” value ([3]; any dose) was “did not reveal notable or treatment-related changes”, the Histopathology ([3]; any dose) was “no histopathology treatment-related modifications” and the “Body weights and food intake” value [3, 5] was “unaffected by the treatment”. The “Ophthalmoscopy and electrocardiographic examination” value [3, 5] was “No treatment-related abnormalities”, the Physical examination [3, 5] was “did not show appreciable changes” and the NOAEL ([3]; daily iv for 2 weeks) was 0.583 mg/kg/day and 0.58 mg/kg/day. The “Increase in systemic exposure (Cmax and AUC0-tlast) with dose” value ([3]; minipig, in vivo) was “approximately dose-proportional”, the “Plasma clearance, dose dependence” value ([3]; minipig, in vivo) was “dose-independent” and the “Treatment-related effects in treated groups compared to controls” value ([3]; once a day for 2 weeks) was “No evidence of treatment-related effects”. The “Changes in respiratory parameters” value [4] was “No changes of toxicological significance were observed in respiratory parameters recorded over 4 hours post-injection”.
